Reference: publication PMC2911597, “Three-Dimensional Structure of TspO by Electron Cryomicroscopy of Helical Crystals” (Structure(London, England:1993), 2010)
Read-outs that look alike come from different tables or passages of the source.

T1: TspO (tryptophan-rich sensory protein) (Cereibacter sphaeroides, UniProt Q9RFC8)
T1 construct: C-terminal His6 tag, expressed in E. coli BL21(DE3), purified in DDM
T1 sequence (Q9RFC8 1-158): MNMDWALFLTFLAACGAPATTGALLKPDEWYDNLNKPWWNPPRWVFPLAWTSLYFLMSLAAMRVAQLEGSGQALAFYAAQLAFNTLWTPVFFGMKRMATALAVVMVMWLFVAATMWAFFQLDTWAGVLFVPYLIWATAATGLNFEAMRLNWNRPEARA

B1: tryptophan-rich sensory protein (TspO) from Rhodobacter sphaeroides (natural protein, UniProt Q9RFC8 1-158, looked up)
chain: MNMDWALFLTFLAACGAPATTGALLKPDEWYDNLNKPWWNPPRWVFPLAWTSLYFLMSLAAMRVAQLEGSGQALAFYAAQLAFNTLWTPVFFGMKRMATALAVVMVMWLFVAATMWAFFQLDTWAGVLFVPYLIWATAATGLNFEAMRLNWNRPEARA
notes: also called rsTspO; TspO-His6; source: E. coli BL21(DE3), pET29, purified in DDM (NiNTA-agarose, gel filtration)

What was measured:
[1] = target: T1, TspO (tryptophan-rich sensory protein); experiment: intrinsic tryptophan fluorescence quenching titration, purified protein in DDM; type: binding
native gel or EMSA = target: the molecule itself; experiment: native gel or EMSA

Row | Molecule | Kd [1] [µM] | further results
1 | C=CC1=C(C)c2cc3[nH]c(cc4nc(cc5[nH]c(cc1n2)c(C)c5CCC(=O)O)C(CCC(=O)O)=C4C)c(C)c3C=C [PPIX, protoporphyrin IX] | 8.6 ± 0.6 | –
2 | CC1=C(CCC(=O)O)c2cc3[nH]c(cc4nc(cc5[nH]c(cc1n2)c(CCC(=O)O)c5C)C(C)=C4CCC(=O)O)c(CCC(=O)O)c3C [cPPIII, coproporphyrin III] | – | Kd ([1]; read-out: Kd): 17.9 ± 1.7 µM
3 | C=CC1=C(C)C2=Cc3c(C=C)c(C)c4[n]3[Fe]([Cl])[n]3c(c(C)c(CCC(=O)O)c3=CC3=NC(=C4)C(C)=C3CCC(=O)O)=CC1=N2 [hemin] | 10 ± 2.5 | –
4 | B1 | – | stoichiometry N (native gel or EMSA): 2
